Assay results reported in patent US7662644B2, “Labeled peptides, proteins and antibodies and processes and intermediates useful for their preparation” (priority 2000, dated 2010).

Key:
GFP-Rac1 = molecular target: T1, GFP-Rac1 (Homo sapiens, UniProt P63000); assay: In vitro FRET titration of Alexa-PBD with GFP-Rac1; assay type: binding; settings: at saturating Alexa-PBD; read-out: apparent GTPγS dissociation constant
T1 construct: 6His; made in house; host or cells: E. coli BL21DE3 (stated for PBD; 'similar procedure' for GFP-Rac1)
Method: FRET between Alexa-PBD and GFP-Rac1 was efficient and dependent on GTP-Rac 1 binding. […] Purified GFP-Rac1 (200 nM) was bound to varying concentrations of […] or GDP at low magnesium by 30 min incubation at 30° C. as described previously (U. G. Knaus et al., J. Biol. Chem. 267, 23575-23582 (1992)), using the following nucleotide equilibration buffer: 50 mM Tris HCl (pH 7.6), 50 mM NaCl, 5 mM MgCl2, 10 mM EDTA, and 1 mM DTT. […] Spectra were corrected for dilution upon Alexa-PBD addition. Alexa-PBD concentrations were either varied as shown, or maintained at 1 micromolar when saturating Alexa-PBD was required. The spectra shown were corrected for direct excitation of the Alexa fluorophore by acquiring spectra of Alexa-PBD alone at equivalent concentrations, and subtracting these from spectra shown in FIG. 7. Kd were determined by fitting to the equation: Y=A*X/(Kd+X). In the FIG. 7, panel A inset, only points actually used in the curve fitting are shown. Higher, saturating concentrations of AlexaPBD were not used because errors from subtraction of direct Alexa excitation became larger. […] The apparent GTPγS dissociation constant was determined at saturating Alexa-PBD by fitting the experimental data to the Michaelis equation (FIG. 7b). […]

Rac = molecular target: T2, Rac (Homo sapiens, UniProt P63000); settings: literature value; read-out: previously reported GTPγS dissociation constant; cited from earlier work
T2 construct: ECFP or EYFP (fusion partner)

[1] = Spectral data for selected merocyanine dyes (absorbance and fluorescence spectra); assay type: physicochemical; set-up: Absorption Maximum / Emission Maximum: unit not given here; settings: in n-butanol
Method: Absorbance spectra were recorded on Hewlett-Packard HP8452 diode array spectrophotometer and fluorescence spectra were recorded on SPEX Fluorolog 2 spectrometer.

cdc42 = molecular target: T3, cdc42 (Homo sapiens, UniProt P60953); assay: Fluorescence of mero-CBD on binding cdc42; settings: for increase of fluorescence on binding activated cdc42 (cdc42-GTPγS): saturating cdc42-GTPγS
T3 construct: 6His; made in house; host or cells: E. coli BL21DE3 (stated for CBD; 'analogous procedures' for cdc42)
T3 sequence (P60953 whole entry, species assumed): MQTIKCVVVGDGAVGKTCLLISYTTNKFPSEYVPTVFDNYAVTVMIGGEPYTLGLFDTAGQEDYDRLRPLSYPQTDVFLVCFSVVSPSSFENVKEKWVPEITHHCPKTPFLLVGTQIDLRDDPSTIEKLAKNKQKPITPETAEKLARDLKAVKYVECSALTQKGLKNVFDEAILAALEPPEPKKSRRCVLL
Method: (§1) Analyses of the solvatochromic activation indicator—A solution of mero-CBD (300 nM) in assay buffer was mixed 1:1 (v/v) with solutions of cdc42 (concentration as indicated), pre-equilibrated with 10 mM GDP or GTPγS as described in Knaus, U. G., Heyworth, P. G., Kinsella, B. T., Cumutte, J. T., and Bokoch, G. M. (1992) J. Biol. Chem. 267, 23575-23582. Emission wavelength of 630 nm and excitation wavelength of 600 nm were used to acquire excitation and emission spectra, respectively. For nucleotide dependence, cdc42 (500 nM) was pre-incubated with varying concentrations of GTPγS (1 to 500 nM). Rac1 and RhoA GTPases were pre-equilibrated with GTPγS in the same manner.
(§2) Fluorescence increase as a measure of CBD-cdc42 interaction—The functionality and specificity of mero-CBD was characterized by measuring fluorescence in the presence of saturating amounts of cdc42-GDP or cdc42-GTPγS. […] Negligible increase (<5%) was also observed in the presence of activated Rac1. No effect on the mero-CBD fluorescence was observed when RhoA-GTPγS was present. Furthermore, even in the presence of excess of activated Rac1 and RhoA, GDP- and GTPγS-bound forms of cdc42 were easily distinguished by CBD-A4C fluorescence (data not shown).

Rac1 = molecular target: T4, Rac1 (Homo sapiens, UniProt P63000); assay: Fluorescence of mero-CBD in presence of activated Rac1; assay type: binding; settings: Rac1 pre-equilibrated with GTPγS
T4 construct: 6His; made in house; host or cells: E. coli BL21DE3 (by 'analogous procedures')
Method: as §1, §2

RhoA = molecular target: T5, RhoA (Homo sapiens, UniProt P61586); assay: Fluorescence of mero-CBD in presence of RhoA-GTPγS; assay type: binding; settings: RhoA-GTPγS present
T5 construct: 6His; made in house; host or cells: E. coli BL21DE3 (by 'analogous procedures')
T5 sequence (P61586 whole entry, species assumed): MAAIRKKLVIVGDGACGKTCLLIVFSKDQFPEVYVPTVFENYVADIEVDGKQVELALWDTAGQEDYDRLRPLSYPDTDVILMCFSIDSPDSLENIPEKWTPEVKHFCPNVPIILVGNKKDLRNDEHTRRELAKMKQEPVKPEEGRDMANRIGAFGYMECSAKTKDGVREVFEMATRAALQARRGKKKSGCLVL
Method: as §1, §2

[2] = Storage of labeled CBD aliquots; assay type: physicochemical; settings: aliquots 15 to 50 μM stored at −80° C. for 6 months
Method: Conjugation of CBD with fluorescent dyes—Dialyzed CBD samples (100-150 μM) were gently inverted with 6 to 7-fold molar excess of the reactive dye at 25° C. for 3 to 4 hours. The reaction was stopped by addition of 10 mM dithiothreitol (DTT), and the mixture was incubated for 15 min. Unreacted dye was separated from the labeled protein using […] (Pharmacia) gel filtration column equilibrated and developed with 25 mM Na2HPO4 (pH 7.5). Purity of the eluting fractions was analyzed by running an aliquot on an SDS gel and visualizing the fluorescence. Only the fractions containing minimal amounts of free dye were used in the subsequent experiments. Dye-to-protein ratio was determined by measuring CBD concentration (ε^280=8,250 M^−1), and A4C concentration at 617 nm (ε=70,000 M^−1 in dimethylsulfoxide) or Alexa546 at 554 nm (ε=104,000 M^−1 in 50 mM potassium phosphate, pH 7.0). Concentrations of CBD were independently confirmed by Coomassie Plus assay (Pierce) calibrated with bovine serum albumin as a standard. Dye-to-protein ratios thus obtained varied between 0.8 and 1.2, 1.7 and 2.1 for the single-dye and dual-dye conjugates, respectively. Aliquots of the labeled CBD (15 to 50 μM) were stored at −80° C. […] In this example, CBD-conjugates were made with the dye shown in FIG. 11, and are referred to as mero-CBD (for merocyanines dye conjugated to CBD).

Molecule | Absorption Maximum [1] | Emission Maximum [1] | Extinction coefficient (*10^−3) [1] | Quantum Yield [1] | other results
Nc1nc2c(ncn2[C@@H]2O[C@H](COP(=O)(O)OP(=O)(O)OP(O)(O)=S)[C@@H](O)[C@H]2O)c(=O)[nH]1 [GTPγS] |  |  |  |  | Kd (GFP-Rac1): 47 ± 9 nM; Kd (Rac): 50 nM
CC1(C)/C(=C/C=C/C=C2/C(=O)c3ccccc3C2=C(C#N)C#N)N(CCCS(=O)(=O)[O-])c2ccccc21.[Na+] [Compound 4] | 667 | 693 | 80 | 0.10 | 
CC1(C)/C(=C/C=C/C=C2/C(=O)c3ccccc3S2(=O)=O)N(CCCS(=O)(=O)[O-])c2ccccc21.[Na+] [Compound 3] | 586 | 618 | 120 | 0.17 | 
mero-CBD: cdc42 binding domain of WASP conjugated to the merocyanine dye shown in FIG. 11 (conjugate, left off: small tags and cut ends) DIQNPDITSSRYRGLPAPGPSPADKKRSGKKKISKADIGAPSGFKHVSHVGWDPQNGFDVNNLDPDLRSLCSRAGISEAQLTDAETSKLIYDFIEDQGGLEAVRQEMRRQEPLPPPPPPSR |  |  |  |  | increase of fluorescence with cdc42-GDP (cdc42; saturating cdc42-GDP): but not cdc42-GDP; increase of fluorescence on binding activated cdc42 (cdc42-GTPγS) (cdc42): Approximately 3.5 fold; increase of fluorescence on binding activated cdc42 (cdc42-GTPγS) (cdc42; listed as CBD biosensor): up to 3.5 fold; increase of fluorescence in the presence of activated Rac1 (Rac1): < 5%; effect of RhoA-GTPγS on fluorescence (RhoA): No effect; loss of binding ability on storage [2]: No significant loss of binding ability
